Columns and labels:
μ opioid receptors = μ opioid receptors (Cavia porcellus, UniProt P97266); experiment: cell-based; parameters: species or system guinea pig
[1] = molecular target: human δ opioid receptors (hDOR) (Homo sapiens, UniProt P41143); experiment: biochemical; format: binding
δ opioid receptors = δ opioid receptors (Mus musculus, UniProt P32300); experiment: cell-based
[2] = molecular target: rat μ-opioid receptors (rMOR) (Rattus norvegicus, UniProt P33535); experiment: biochemical; format: binding
Sequence of rat μ-opioid receptors (rMOR) (P33535 whole entry): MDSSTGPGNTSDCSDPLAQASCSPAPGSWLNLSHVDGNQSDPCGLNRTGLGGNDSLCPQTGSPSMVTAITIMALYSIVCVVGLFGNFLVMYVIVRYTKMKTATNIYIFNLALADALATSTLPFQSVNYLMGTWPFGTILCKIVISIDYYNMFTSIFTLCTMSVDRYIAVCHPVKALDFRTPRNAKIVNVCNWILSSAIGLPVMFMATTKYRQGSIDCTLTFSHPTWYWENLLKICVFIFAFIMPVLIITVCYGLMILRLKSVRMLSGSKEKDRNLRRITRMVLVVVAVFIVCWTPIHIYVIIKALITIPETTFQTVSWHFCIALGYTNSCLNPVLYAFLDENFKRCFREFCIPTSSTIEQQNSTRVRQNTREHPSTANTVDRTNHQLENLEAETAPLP

Sequence of human δ opioid receptors (hDOR) (P41143 whole entry): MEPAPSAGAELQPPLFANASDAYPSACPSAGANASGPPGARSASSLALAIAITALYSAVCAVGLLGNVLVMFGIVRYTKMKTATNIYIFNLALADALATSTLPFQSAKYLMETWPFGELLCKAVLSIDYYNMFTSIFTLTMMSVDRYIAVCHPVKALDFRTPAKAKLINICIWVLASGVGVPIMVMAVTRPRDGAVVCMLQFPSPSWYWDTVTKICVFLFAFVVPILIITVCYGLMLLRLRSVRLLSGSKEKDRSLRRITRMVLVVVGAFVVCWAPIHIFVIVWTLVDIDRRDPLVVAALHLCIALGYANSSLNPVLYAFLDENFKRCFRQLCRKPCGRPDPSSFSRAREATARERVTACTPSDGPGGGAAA
Sequence of δ opioid receptors (P32300 whole entry): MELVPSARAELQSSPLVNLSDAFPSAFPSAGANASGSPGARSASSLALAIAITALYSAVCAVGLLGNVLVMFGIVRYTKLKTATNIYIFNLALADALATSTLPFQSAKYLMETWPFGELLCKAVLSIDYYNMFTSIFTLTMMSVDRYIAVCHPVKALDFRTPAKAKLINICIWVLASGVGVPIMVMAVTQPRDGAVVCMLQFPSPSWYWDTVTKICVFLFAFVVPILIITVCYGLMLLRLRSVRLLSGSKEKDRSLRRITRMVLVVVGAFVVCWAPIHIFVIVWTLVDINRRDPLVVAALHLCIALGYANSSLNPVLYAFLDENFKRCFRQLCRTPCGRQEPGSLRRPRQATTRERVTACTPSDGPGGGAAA
Sequence of μ opioid receptors (P97266 whole entry, looked up): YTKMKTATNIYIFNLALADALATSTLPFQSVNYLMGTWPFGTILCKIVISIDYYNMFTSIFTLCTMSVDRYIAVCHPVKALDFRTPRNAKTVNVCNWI

Work on CCC(=O)N(CC1CCCCN1Cc1ccc2c(c1)CCC[C@H]2N(C(=O)CCNC(=O)[C@H](Cc1ccccc1)NC(=O)CNC(=O)[C@@H](C)NC(=O)[C@@H](N)Cc1c(C)cc(O)cc1C)C(=O)CCNC(=O)[C@H](Cc1ccccc1)NC(=O)CNC(=O)[C@@H](C)NC(=O)[C@@H](N)Cc1c(C)cc(O)cc1C)c1ccc(F)c(F)c1 (stereo partly drawn) [Compound 10] yielded an IC50 (μ opioid receptors) of 2.1 ± 0.45 nM, an IC50 [1] of 1.41 nM and a Ki [1] of 0.6 nM. For the same compound, the IC50 (δ opioid receptors) was 6.1 ± 1.5 nM, the IC50 [2] was 1.29 nM and the Ki [2] was 0.6 nM.

Source: article PMC4873255 (Bioorganic & medicinal chemistry letters, 2015)
